Data: ChEMBL document CHEMBL2176941, “Kinetic profile of amyloid formation in the presence of an aromatic inhibitor by nuclear magnetic resonance” (ACS Med Chem Lett, 2012)
Activity calls are given as the source filed them. The calls are words filed in the database; no cut-off is given here.

Key:
[1] = target: T1, Islet amyloid polypeptide (Homo sapiens) (UniProt P10997); experiment: Inhibition of IAPP assembly at 1:1 protein to compound ratio after 18 to 31 days by NMR analysis
T1 sequence (whole entry): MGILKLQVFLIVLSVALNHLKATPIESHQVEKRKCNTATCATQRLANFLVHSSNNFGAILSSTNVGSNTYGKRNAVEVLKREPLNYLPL

[2] = target: T1, Islet amyloid polypeptide (Homo sapiens); experiment: Activity of IAPP assessed as maximal rate of self-assembly at 1:1 protein to compound ratio by NMR analysis (reference value: 12.2/day)
[3] = target: T1, Islet amyloid polypeptide (Homo sapiens); experiment: Inhibition of IAPP fibrillation at 1:1 protein to compound ratio after 44 days by transmission electron microscopy
[4] = target: T1, Islet amyloid polypeptide (Homo sapiens); experiment: Inhibition of IAPP assembly assessed as nucleation period at 1:1 protein to compound ratio (reference value: 15.3 days)
[5] = target: T1, Islet amyloid polypeptide (Homo sapiens); experiment: Inhibition of IAPP assembly at 1:1 protein to compound ratio after 29 days by NMR analysis
[6] = Inhibition of IAPP (11 to 25) S20G mutant assembly at 1:1 protein to compound ratio after 1 to 8 days by TOCSY spectra analysis
[7] = target: T1, Islet amyloid polypeptide (Homo sapiens); experiment: Inhibition of IAPP assembly assessed as prenucleation period at 1:1 protein to compound ratio by NMR analysis
[8] = target: T1, Islet amyloid polypeptide (Homo sapiens); experiment: Inhibition of IAPP assembly at 1:1 protein to compound ratio after 1 to 5 days by circular dichroism spectra analysis

COc1cc(/C=C/C(=O)CC(=O)/C=C/c2ccc(O)c(OC)c2)ccc1O
inhibition [1]: Active
Activity [2]: 15.1 day⁻¹
inhibition [3]: inactive
TIME [4]: 290 h
inhibition [5]: inactive
inhibition [6]: Active
TIME [7]: 408 h
inhibition [8]: Active
